Results reported in ChEMBL document CHEMBL4699595, “Ganoweberianones A and B, Antimalarial Lanostane Dimers from Cultivated Fruiting Bodies of the Basidiomycete Ganoderma weberianum” (J Nat Prod, 2020).
Active and inactive are the calls of the source. The calls are words filed in the database; no cut-off is given here.

Columns and labels:
Plasmodium falciparum = assay: Antimalarial activity against multi drug-resistant Plasmodium falciparum K1 infected in human erythrocytes assessed as reduction in parasite growth preincubated for 24 hrs followed by [3H]hypoxanthine addition and measured after 18 hrs by scintillation counting method; assay type: functional, organism-based; settings: K1, Erythrocyte
Vero = assay: Cytotoxicity against African green monkey Vero cells assessed as reduction in cell viability by tryphan blue exclusion method; assay type: cell-based; settings: Chlorocebus sabaeus
[1] = system: Mycobacterium tuberculosis; assay: Antimycobacterial activity against Mycobacterium tuberculosis H37Ra ATCC 25177; assay type: functional, organism-based
[2] = Selectivity index, ratio of IC50 for cytotoxicity against African green monkey Vero cells to IC50 for antimalarial activity against multi drug-resistant Plasmodium falciparum K1 infected in human erythrocytes; assay type: toxicity, cell-based; settings: read-out: Ratio IC50

Compound | IC50 (Plasmodium falciparum) | IC50 (Vero) | Activity [1] | selectivity ratio [2]
C[C@H](CC(=O)C[C@H](C)C(=O)O)[C@H]1C[C@@H](O)[C@@]2(C)C3=C(C(=O)C[C@]12C)[C@@]1(C)CC[C@@H](O)C(C)(C)[C@@H]1CC3=O | ≥ 17 µM | ≥ 87 µM | inactive | –
C[C@H](CC(=O)C[C@H](C)C(=O)O)[C@H]1C[C@@H](O)[C@@]2(C)C3=C(C(=O)[C@@H](O)[C@]12C)[C@@]1(C)CCC(=O)C(C)(C)[C@@H]1CC3=O | ≥ 17 µM | ≥ 87 µM | inactive | –
C[C@H](CC[C@H](OC(=O)[C@@H](C)CC(=O)C[C@@H](C)[C@H]1C[C@@H](O)[C@@]2(C)C3=C(C(=O)C[C@]12C)[C@@]1(C)CCC(=O)C(C)(C)[C@@H]1CC3=O)[C@](C)(O)CO)[C@H]1CC[C@@]2(C)C3=CC[C@H]4C(C)(C)C(=O)CC[C@]4(C)C3=CC[C@]12C | 0.05 µM | 0.21 µM | inactive | 4.2
C[C@H](CC[C@H](OC(=O)[C@@H](C)CC(=O)C[C@@H](C)[C@H]1C[C@@H](O)[C@@]2(C)C3=C(C(=O)C[C@]12C)[C@@]1(C)CC[C@@H](O)C(C)(C)[C@@H]1CC3=O)[C@](C)(O)CO)[C@H]1CC[C@@]2(C)C3=CC[C@H]4C(C)(C)C(=O)CC[C@]4(C)C3=CC[C@]12C | 0.46 µM | 10 µM | inactive | 2.2
C[C@H](CC(=O)C[C@H](C)C(=O)O)[C@H]1C[C@@H](O)[C@@]2(C)C3=C(C(=O)C[C@]12C)[C@@]1(C)CCC(=O)[C@@](C)(CO)[C@@H]1CC3=O | ≥ 17 µM | ≥ 87 µM | inactive | –
C[C@H](CC(=O)C[C@H](C)C(=O)O)[C@H]1C[C@@H](O)[C@@]2(C)C3=C(C(=O)C[C@]12C)[C@@]1(C)CCC(=O)C(C)(C)[C@@H]1CC3=O | ≥ 17 µM | ≥ 87 µM | inactive | –
CC(=O)O[C@@H]1C(=O)C2=C(C(=O)C[C@H]3C(C)(C)C(=O)CC[C@]23C)[C@]2(C)[C@H](O)C[C@H]([C@H](C)CC(=O)C[C@H](C)C(=O)O)[C@@]12C | ≥ 17 µM | ≥ 87 µM | inactive | –
